Assay results: ChEMBL document CHEMBL3727346, “6-(pyridinyl)-4-pyrimidone derivates as tau protein kinase 1 inhibitors” (2011)
Active and inactive are the calls of the source. How the calls were made is not given here.

Molecular target: Glycogen synthase kinase-3 beta splice variant X1 (Bos taurus) (UniProt A0A059UE90)
Test: Inhibition of bovine cerebral TPK1 assessed as reduction in P-GS1 phosphorylation using [32gammaP]ATP incubated for 2 hrs by liquid scintillation counting method

| inhibition | Structure (SMILES) |
| --- | --- |
| Active | Cn1c(N2CCO[C@@H](c3ccc(N4CCN(c5ccccc5)CC4)cc3)C2)nc(-c2ccncc2F)cc1=O |
| Active | COc1ccc(-c2ccc([C@H]3CN(c4nc(-c5ccncc5F)cc(=O)n4C)CCN3)cc2)c(OC)c1 |
| Active | Cn1c(N2CCN[C@@H](c3ccc(N4CC[C@H](C#N)C4)cc3)C2)nc(-c2ccncc2F)cc1=O |
| Active | Cn1c(N2CCO[C@@H](c3ccc(Nc4cccnc4)cc3)C2)nc(-c2ccncc2F)cc1=O |
| Active | CC(=O)Nc1ccc([C@H]2CN(c3nc(-c4ccncc4F)cc(=O)n3C)CCO2)cc1 |
| Active | Cn1c(N2CCO[C@@H](c3ccc([N+](=O)[O-])cc3)C2)nc(-c2ccncc2F)cc1=O |
| Active | CC(C)Nc1ccc([C@H]2CN(c3nc(-c4ccncc4F)cc(=O)n3C)CCO2)cc1 |
| Active | Cn1c(N2CCOC(c3cccc(-c4nccs4)c3)C2)nc(-c2ccncc2F)cc1=O (centres undefined) |
| Active | Cn1c(N2CCN[C@@H](c3ccc(N4CCC(O)CC4)cc3)C2)nc(-c2ccncc2F)cc1=O |
| Active | CN(c1ccc([C@H]2CN(c3nc(-c4ccncc4F)cc(=O)n3C)CCO2)cc1)C1CCCCCC1 |
| Active | Cn1c(N2CCO[C@@H](c3ccc(C(=O)NCCO)cc3)C2)nc(-c2ccncc2F)cc1=O |
| Active | Cn1c(N2CCO[C@@H](c3ccc(N)c(F)c3)C2)nc(-c2ccncc2F)cc1=O |
| Active | Cn1c(N2CCO[C@@H](c3ccc(NS(=O)(=O)Cc4ccccc4)cc3)C2)nc(-c2ccncc2F)cc1=O |
| Active | C[C@@H]1CN(c2ccc([C@H]3CN(c4nc(-c5ccncc5F)cc(=O)n4C)CCN3)cc2)C[C@H](C)N1 |
| Active | Cn1c(N2CCO[C@@H](c3ccc(NC(=O)CN4CCCCC4)cc3)C2)nc(-c2ccncc2F)cc1=O |
| Active | Cn1c(N2CCN[C@@H](c3ccc(N4CC[C@H](C(N)=O)C4)cc3)C2)nc(-c2ccncc2F)cc1=O |
| Active | Cn1c(N2CCN[C@@H](c3ccc(-c4ccc(OC(F)(F)F)cc4)cc3)C2)nc(-c2ccncc2F)cc1=O |
| Active | CN(c1ccc([C@H]2CN(c3nc(-c4ccncc4F)cc(=O)n3C)CCO2)cc1)C1CCCC1 |
| Active | Cn1c(N2CCO[C@@H](c3ccc(NS(C)(=O)=O)cc3)C2)nc(-c2ccncc2F)cc1=O |
| Active | Cn1c(N2CCO[C@@H](c3cccc(N)c3)C2)nc(-c2ccncc2F)cc1=O |

| inhibition | Structure (SMILES) |
| --- | --- |
| Active | Cn1c(N2CCN[C@@H](c3ccc(N4CCOCC4)cc3)C2)nc(-c2ccncc2F)cc1=O |
| Active | CN(C)C1CCN(c2ccc([C@H]3CN(c4nc(-c5ccncc5F)cc(=O)n4C)CCN3)cc2)CC1 |
| Active | Cn1c(N2CCO[C@@H](c3ccc(NC(=O)C4(C)CC4)cc3)C2)nc(-c2ccncc2F)cc1=O |
| Active | CC(C)N1CCN(c2ccc([C@H]3CN(c4nc(-c5ccncc5F)cc(=O)n4C)CCO3)cc2)CC1 |
| Active | Cn1c(N2CCN[C@@H](c3ccc(C#N)cc3)C2)nc(-c2ccncc2F)cc1=O |
| Active | COc1ccc(-c2ccc([C@H]3CN(c4nc(-c5ccncc5F)cc(=O)n4C)CCN3)cc2)cc1OC |
| Active | Cn1c(N2CCO[C@@H](c3ccc(NC4CCCCC4)cc3)C2)nc(-c2ccncc2F)cc1=O |
| Active | CN1CCN(CCOc2ccc([C@H]3CN(c4nc(-c5ccncc5F)cc(=O)n4C)CCO3)cc2)CC1 |
| Active | CCOC(=O)Nc1ccc([C@H]2CN(c3nc(-c4ccncc4F)cc(=O)n3C)CCO2)cc1 |
| Active | CN(C)S(=O)(=O)c1ccc([C@H]2CN(c3nc(-c4ccncc4F)cc(=O)n3C)CCO2)cc1 |
| Active | CN1CCN(CC(=O)Nc2ccc([C@H]3CN(c4nc(-c5ccncc5F)cc(=O)n4C)CCO3)cc2)CC1 |
| Active | CCN(CC)Cc1ccc([C@H]2CN(c3nc(-c4ccncc4F)cc(=O)n3C)CCO2)cc1 |
| Active | Cn1c(N2CCO[C@@H](c3ccc(N4CC[C@H](N5CCCC5)C4)cc3)C2)nc(-c2ccncc2F)cc1=O |
| Active | Cn1c(N2CCO[C@@H](c3cccc(NC(=O)C4CC4)c3)C2)nc(-c2ccncc2F)cc1=O |
| Active | CN(C)[C@H]1CCN(c2ccc([C@H]3CN(c4nc(-c5ccncc5F)cc(=O)n4C)CCN3)cc2)C1 |
| Active | CN(C)c1ccc([C@H]2CN(c3nc(-c4ccncc4F)cc(=O)n3C)CCN2)cc1 |
| Active | Cn1c(N2CCO[C@@H](c3ccc(F)cc3)C2)nc(-c2ccncc2F)c(F)c1=O |
| Active | Cn1c(N2CCN[C@@H](c3ccc(-c4ccc(C(C)(C)C)cc4)cc3)C2)nc(-c2ccncc2F)cc1=O |
| Active | Cn1c(N2CCO[C@@H](c3ccc(N4CCC(N5CCCCC5)CC4)cc3)C2)nc(-c2ccncc2F)cc1=O |
| Active | Cn1c(N2CCO[C@@H](c3ccc(NC(=S)Nc4cccnc4)cc3)C2)nc(-c2ccncc2F)cc1=O |

| inhibition | Structure (SMILES) |
| --- | --- |
| Active | Cc1ccc(-c2ccc([C@H]3CN(c4nc(-c5ccncc5F)cc(=O)n4C)CCN3)cc2)cc1 |
| Active | Cn1c(N2CCO[C@@H](c3ccc(C(=O)NC4CCCCC4)cc3)C2)nc(-c2ccncc2F)cc1=O |
| Active | Cn1c(N2CCO[C@@H](c3ccc(OCC4CC4)cc3)C2)nc(-c2ccncc2F)cc1=O |
| Active | Cn1c(N2CCO[C@@H](c3ccc(OCCN4CCNCC4)cc3)C2)nc(-c2ccncc2F)cc1=O |
| Active | Cn1c(N2CCN[C@@H](c3ccc(N4CC[C@@H](O)C4)cc3)C2)nc(-c2ccncc2F)cc1=O |
| Active | CN(C)c1cccc2c(S(=O)(=O)Nc3ccc([C@H]4CN(c5nc(-c6ccncc6F)cc(=O)n5C)CCO4)cc3)cccc12 |
| Active | COc1ccc([C@H]2CN(c3nc(-c4ccncc4F)c(Br)c(=O)n3C)CCO2)cc1 |
| Active | Cn1c(N2CCO[C@@H](c3ccc(NC(=O)CN4CCCC4)cc3)C2)nc(-c2ccncc2F)cc1=O |
| Active | Cn1c(N2CCOC(c3ccc4c(c3)NC(=O)CO4)C2)nc(-c2ccncc2F)cc1=O (racemic) |
| Active | Cn1c(N2CCO[C@@H](c3ccc(NC4CCCC4)cc3)C2)nc(-c2ccncc2F)cc1=O |
| Active | C[C@@H]1CN(c2ccc([C@H]3CN(c4nc(-c5ccncc5F)cc(=O)n4C)CCO3)cc2)C[C@H](C)N1 |
| Active | CC(=O)OCCN1CCN(c2ccc([C@H]3CN(c4nc(-c5ccncc5F)cc(=O)n4C)CCN3)cc2)CC1 |
| Active | Cn1c(N2CCO[C@@H](c3ccc(NC(=O)OCc4ccccc4)cc3)C2)nc(-c2ccncc2F)cc1=O |
| Active | CCN(c1ccc([C@H]2CN(c3nc(-c4ccncc4F)cc(=O)n3C)CCO2)cc1)C1CCCCC1 |
| Active | Cn1c(N2CCO[C@@H](c3ccc(NC(=O)c4ccccc4)cc3)C2)nc(-c2ccncc2F)cc1=O |
| Active | CCN(CC)CCOc1ccc([C@H]2CN(c3nc(-c4ccncc4F)cc(=O)n3C)CCO2)cc1 |
| Active | Cc1nc(-c2ccc(C3CN(c4nc(-c5ccncc5F)cc(=O)n4C)CCN3)cc2)no1 (centres undefined) |
| Active | Cn1c(N2CCO[C@@H](c3ccccc3)C2)nc(-c2ccncc2F)cc1=O |
| Active | Cn1c(N2CCOC(c3cccc(-c4cncnc4)c3)C2)nc(-c2ccncc2F)cc1=O (racemic) |
